Drawing on patent US20190151312A1, “HEPARAN SULFATE BIOSYNTHESIS INHIBITORS FOR THE TREATMENT OF DISEASES” (BioMarin Pharmaceutical Inc., priority 2014, published 2019), this text covers IC50 for 27 molecules.

SMILES strings stand for the structures. pIC50: −log10 of the molar value.

The test system of one experiment is GM01896 cells (MPS II dermal fibroblasts). Kind of experiment: Assay 1: MPS cellular assay, MPS II (heparan sulfate disaccharide biomarkers by LC-MS). Format: cell-based, human. The settings on record: Assay 1 for MPS II, heparan sulfate disaccharide biomarkers (I2a4, I2a6, I2S0 and/or I2S6), read-out: IC50 Range. As to the method:
Dermal fibroblasts from humans with an MPS disorder and from healthy donors are grown. Cells are expanded and kept in culture for analysis. Human foreskin fibroblasts can be obtained from the American Type Culture Collection (CRL-1634). Human dermal fibroblasts derived from biopsies of individuals are purchased from Coriell Institute: clinically healthy individuals, GM00408, GM00409, GM00200 (clinically unaffected sibling of an individual with metachromatic leukodystrophy), GM05659, GM08398, and GM15871 (clinically unaffected sibling of an individual with unclassified Ehlers-Danlos syndrome); heterozygous MPS I carriers, GM01392, GM01393 and GM0003; homozygous individuals affected with MPS I, GM06214, GM11495, GM00034, GM01391 and GM01256; individuals with MPS II, GM01896, GM03181, GM00615 and GM00298; individuals with MPS IIIA, GM00879, GM00643, GM00934, GM06110 and GM00629; MPS IIIB, GM01426; MPS IIIC, GM05157; MPS IIID, GM05093; and MPS VII, GM00121. All cells are grown in DMEM containing 50 U ml-1 penicillin, […] ml-1 streptomycin, 2 mM glutamine and 10% FBS. Cells are seeded on 15-cm-diameter tissue culture dishes, grown to confluence and maintained in culture for analysis. Sulfamidase activity in cell extracts is measured with 4-methylumbelliferyl-α-D-N-sulfoglucosaminide according the vendors instructions substituting Tris-acetate buffer (pH 6.5; Moscerdam).
Cells are treated with a compound of the invention at a concentration at or below 30 μM for 4 to 21 days. Cell monolayers are washed with phosphate buffered saline and detached by treatment with GIBCO trypsin-EDTA solution (Invitrogen). After centrifugation, the supernatant is removed and the cells are lysed in 0.5 mL of 0.1 N sodium hydroxide. The amount of protein is determined by bicinchoninic acid (BCA assay, Thermo Scientific). GAGs are isolated by anion exchange chromatography and digested with glycosaminoglycan lyases (heparinases I, II, and III, IBEX).
Enzymatically depolymerized GAG preparations are differentially mass labeled by reductive amination with [^12C6]aniline. Briefly, heparan sulfate disaccharides (1-10 pmol) are dried down in a centrifugal evaporator and reacted with [^12C6]aniline or [^13C6]aniline (15 μL, 165 μmol) and 15 μL of 1 M NaCNBH3 (Sigma-Aldrich) freshly prepared in dimethylsulfoxide/acetic acid (7:3, v/v) is added to each sample. Reactions are carried out at 37° C. for 16 h and then dried in a centrifugal evaporator. Unsubstituted amines are reacted with propionic anhydride (Sigma-Aldrich). Dried samples are reconstituted in 20 μL of 50% methanol, and 3 μL of propionic anhydride (Sigma-Aldrich, 23.3 μmol) is added. Reactions are carried out at ˜23° C. for 2 h. Acylated disaccharides are subsequently aniline tagged as described above. Each sample is mixed with commercially available standard unsaturated disaccharides (Seikagaku), standard N-sulfoglucosamine, glucosamine-6-sulfate, N-acetylgalactosamine-4-sulfate and N-acetylgalactosamine-6-sulfate (Sigma-Aldrich), and/or synthesized α-L-idopyranosyluronate-(1,4)-2-N-acetyl-2-deoxy-α/β-D-glucopyranoside (I0S0). All standards are tagged with [^13C6]aniline (Sigma-Aldrich). Samples are then analyzed by LC-MS using an LTQ Orbitrap Discovery electrospray ionization mass spectrometer (Thermo Scientific) equipped with quaternary HPLC pump (Finnigan Surveyor MS pump) and a reverse-phase capillary column as described in J. Biol. Chem. 2008, 283(48), 33674.
MPS II: Assay 1, as described above, was used to determine activity for MPS II using GM01896 cells. […] Extracted ion chromatograms were obtained. Cell viability was monitored using alamar blue or ATP quantification. IC50's were calculated using curve fitting within the ChemInnovation CBIS database system.
Consider `Cn1nc(N2CCOCC2)c2ccc(-c3cc(Nc4ccc(Cl)cc4)nc(N4CCOCC4)n3)cc21` [(4-chlorophenyl)[6-(1-methyl-3-morpholin-4-yl(1H-indazol-6-yl))-2-morpholin-4-ylpyrimidin-4-yl]amine], for which the pIC50 is 5.30 to 6.00.

In the case of `Cn1nc(N2CCCC2)c2ccc(-c3cc(Nc4ccc(Cl)cc4)nc(N4CCOCC4)n3)cc21` [(4-chlorophenyl)[6-(1-methyl-3-pyrrolidinyl(1H-indazol-6-yl))-2-morpholin-4-ylpyrimidin-4-yl]amine], the pIC50 is 5.30 to 6.00.

The experiment is the same for the next values; noted with them: Homo sapiens, Fibroblast, Assay 1 for MPS II, heparan sulfate disaccharide biomarkers (I2a4, I2a6, I2S0 and/or I2S6), read-out: IC50 Range.
With `Cn1nc(NCCCN2CCOCC2)c2ccc(-c3cc(Nc4ccc(Cl)cc4)nc(N4CCOCC4)n3)cc21` [(4-chlorophenyl)(6-{1-methyl-3-[(3-morpholin-4-ylpropyl)amino](1H-indazol-6-yl)}-2-morpholin-4-ylpyrimidin-4-yl)amine], the pIC50 was 6.00 to 6.30.

As to `Cn1nc(NCCCN2CCCC2)c2ccc(-c3cc(Nc4ccc(Cl)cc4)nc(N4CCOCC4)n3)cc21` [(4-chlorophenyl)(6-{1-methyl-3-[(3-pyrrolidinylpropyl)amino](1H-indazol-6-yl)}-2-morpholin-4-ylpyrimidin-4-yl)amine], the pIC50 was 5.30 to 6.00.

`CN1CCN(Cc2nn(C)c3cc(-c4cc(Nc5ccc(Cl)cc5)nc(N5CCOCC5)n4)ccc23)CC1` [(4-chlorophenyl)(6-{1-methyl-3-[(4-methylpiperazinyl)methyl](1H-indazol-6-yl)}-2-morpholin-4-ylpyrimidin-4-yl)amine]: the pIC50 is 6.00 to 6.30.

On to `Cn1nc(NCCCCN2CCCC2)c2ccc(-c3cc(Nc4ccc(Cl)cc4)nc(N4CCOCC4)n3)cc21` [(4-chlorophenyl)(6-{1-methyl-3-[(4-pyrrolidinylbutyl)amino](1H-indazol-6-yl)}-2-morpholin-4-ylpyrimidin-4-yl)amine], for which the negative-log IC50 (pIC50) is 6.00 to 6.30.

As for `COCCNc1nc2ccc(-c3cc(Nc4ccc(Cl)cc4)nc(N4CCOCC4)n3)cc2n1C` [(4-chlorophenyl)(6-{2-[(2-methoxyethyl)amino]-1-methylbenzimidazol-6-yl}-2-morpholin-4-ylpyrimidin-4-yl)amine], the pIC50 is 6.00 to 6.30.

With `Clc1ccc(Nc2cc(-c3ccc4c(c3)ncn4C3COC3)nc(N3CCOCC3)n2)cc1` [(4-chlorophenyl)[2-morpholin-4-yl-6-(1-oxetan-3-ylbenzimidazol-5-yl)pyrimidin-4-yl]amine], the pIC50 is 6.00 to 6.30.

Regarding `Clc1ccc(Nc2cc(-c3ccc4ncn(C5COC5)c4c3)nc(N3CCOCC3)n2)cc1` [(4-chlorophenyl)[2-morpholin-4-yl-6-(1-oxetan-3-ylbenzimidazol-6-yl)pyrimidin-4-yl]amine], the pIC50 is above 6.30.

Turning to `Cc1c(Nc2ccc(Cl)cc2)nc(N2CCOCC2)nc1-c1ccc2cnn(C)c2c1` [(4-chlorophenyl)[5-methyl-6-(1-methyl(1H-indazol-6-yl))-2-morpholin-4-ylpyrimidin-4-yl]amine], the pIC50 was 5.30 to 6.00.

Take `Clc1ccc(Nc2cc(-c3ccc4cnn(C5CCC5)c4c3)nc(N3CCOCC3)n2)cc1` [(4-chlorophenyl)[6-(1-cyclobutyl(1H-indazol-6-yl))-2-morpholin-4-ylpyrimidin-4-yl]amine]: the pIC50 was 5.30 to 6.00.

Consider `Cc1nc2cc(-c3cc(Nc4ccc(Cl)cc4)nc(N4CCOCC4)n3)ccc2n1C1CCC1` [(4-chlorophenyl)[6-(1-cyclobutyl-2-methylbenzimidazol-5-yl)-2-morpholin-4-ylpyrimidin-4-yl]amine], for which the negative-log IC50 (pIC50) was 5.30 to 6.00.

Regarding `Cc1nc2ccc(-c3cc(Nc4ccc(Cl)cc4)nc(N4CCOCC4)n3)cc2n1C1CCC1` [(4-chlorophenyl)[6-(1-cyclobutyl-2-methylbenzimidazol-6-yl)-2-morpholin-4-ylpyrimidin-4-yl]amine], the pIC50 was 5.30 to 6.00.

Turning to `Clc1ccc(Nc2cc(-c3ccc4ncn(C5CCC5)c4c3)nc(N3CCOCC3)n2)cc1` [(4-chlorophenyl)[6-(1-cyclobutylbenzimidazol-6-yl)-2-morpholin-4-ylpyrimidin-4-yl]amine], the pIC50 is 6.00 to 6.30.

Regarding `Clc1ccc(Nc2cc(-c3ccc4cnn(C5CC5)c4c3)nc(N3CCOCC3)n2)cc1` [(4-chlorophenyl)[6-(1-cyclopropyl(1H-indazol-6-yl))-2-morpholin-4-ylpyrimidin-4-yl]amine], the pIC50 was 5.30 to 6.00.

Take `Cc1nc2ccc(-c3cc(Nc4ccc(Cl)cc4)nc(N4CCOCC4)n3)cc2n1C1CC1` [(4-chlorophenyl)[6-(1-cyclopropyl-2-methylbenzimidazol-6-yl)-2-morpholin-4-ylpyrimidin-4-yl]amine]: the pIC50 is 6.00 to 6.30.

As for `Clc1ccc(Nc2cc(-c3ccc4c(c3)ncn4C3CC3)nc(N3CCOCC3)n2)cc1` [(4-chlorophenyl)[6-(1-cyclopropylbenzimidazol-5-yl)-2-morpholin-4-ylpyrimidin-4-yl]amine], the pIC50 is 5.30 to 6.00.

In the case of `Clc1ccc(Nc2cc(-c3ccc4ncn(C5CC5)c4c3)nc(N3CCOCC3)n2)cc1` [(4-chlorophenyl)[6-(1-cyclopropylbenzimidazol-6-yl)-2-morpholin-4-ylpyrimidin-4-yl]amine], the pIC50 is 6.00 to 6.30.

In the case of `Cn1ncc2ccc(-c3cc(Nc4ccc(Cl)cc4)nc(N4CCOCC4)n3)cc21` [(4-chlorophenyl)[6-(1-methyl(1H-indazol-6-yl))-2-morpholin-4-ylpyrimidin-4-yl]amine], the pIC50 is 6.00 to 6.30.

On to `Cn1c(N2CCCC2)nc2ccc(-c3cc(Nc4ccc(Cl)cc4)nc(N4CCOCC4)n3)cc21` [(4-chlorophenyl)[6-(1-methyl-2-pyrrolidinylbenzimidazol-6-yl)-2-morpholin-4-ylpyrimidin-4-yl]amine], for which the negative logarithm of the IC50 (pIC50) was 5.30 to 6.00.

For the molecule `Cn1cnc2cc(-c3cc(Nc4ccc(Cl)cc4)nc(N4CCOCC4)n3)ccc21` [(4-chlorophenyl)[6-(1-methylbenzimidazol-5-yl)-2-morpholin-4-ylpyrimidin-4-yl]amine], the pIC50 was 6.00 to 6.30.

Consider `Cn1cnc2ccc(-c3cc(Nc4ccc(Cl)cc4)nc(N4CCOCC4)n3)cc21` [(4-chlorophenyl)[6-(1-methylbenzimidazol-6-yl)-2-morpholin-4-ylpyrimidin-4-yl]amine], for which the pIC50 was above 6.30.

As for `Cn1ncc2ncc(-c3cc(Nc4ccc(Cl)cc4)nc(N4CCOCC4)n3)cc21` [(4-chlorophenyl)[6-(1-methylpyrazolo[4,5-b]pyridin-6-yl)-2-morpholin-4-ylpyrimidin-4-yl]amine], the pIC50 was 6.00 to 6.30.

Regarding `Cn1ncc2ccc(-c3cc(Nc4ccc(Cl)cc4)nc(N4CCOCC4)n3)nc21` [(4-chlorophenyl)[6-(1-methylpyrazolo[4,5-e]pyridin-6-yl)-2-morpholin-4-ylpyrimidin-4-yl]amine], the pIC50 was 5.30 to 6.00.

With `Cn1c(C2CC2)nc2ccc(-c3cc(Nc4ccc(Cl)cc4)nc(N4CCOCC4)n3)cc21` [(4-chlorophenyl)[6-(2-cyclopropyl-1-methylbenzimidazol-6-yl)-2-morpholin-4-ylpyrimidin-4-yl]amine], the pIC50 was 6.00 to 6.30.

For the molecule `Cc1nc2cc(-c3cc(Nc4ccc(Cl)cc4)nc(N4CCOCC4)n3)ccc2n1C1COC1` [(4-chlorophenyl)[6-(2-methyl-1-oxetan-3-ylbenzimidazol-5-yl)-2-morpholin-4-ylpyrimidin-4-yl]amine], the pIC50 is above 6.30.

Turning to `Cc1nc2ccc(-c3cc(Nc4ccc(Cl)cc4)nc(N4CCOCC4)n3)cc2n1C1COC1` [(4-chlorophenyl)[6-(2-methyl-1-oxetan-3-ylbenzimidazol-6-yl)-2-morpholin-4-ylpyrimidin-4-yl]amine], the pIC50 was above 6.30.

The term pIC50 denotes the IC50 on a negative log10 scale, so that one unit is a factor of ten.
